This is an account of results in ChEMBL document CHEMBL5356966, “A dual mechanism with H2S inhibition and membrane damage of morusin from Morus alba Linn. against MDR-MRSA” (2024).

For experiment [1], the system named is Enterococcus. The experiment in a line: Antibacterial activity vancomycin-resistant Enterococcus assessed as inhibition of bacterial growth incubated for 24 hrs by CLSI based analysis. Type of experiment: functional.
Experiment [2] relates to Staphylococcus aureus. The experiment can be described thus: Antibacterial activity methicillin-resistant Staphylococcus aureus 003 assessed as inhibition of bacterial growth incubated for 24 hrs by CLSI based analysis. Type of experiment: functional.
Experiment [3] has as its system Staphylococcus aureus. The experiment can be described thus: Antibacterial activity Staphylococcus aureus assessed as inhibition of bacterial growth incubated for 24 hrs by CLSI based analysis. Type of experiment: functional.
The test system of experiment [4] is Staphylococcus aureus. The experiment in a line: Antibacterial activity methicillin-resistant Staphylococcus aureus 011 assessed as inhibition of bacterial growth incubated for 24 hrs by CLSI based analysis. In kind it is functional.
Experiment [5] relates to Escherichia coli. The experiment in a line: Antibacterial activity Escherichia coli assessed as inhibition of bacterial growth incubated for 24 hrs by CLSI based analysis. In kind it is functional.
Experiment [6] has as its system Acinetobacter baumannii. The experiment can be described thus: Antibacterial activity Acinetobacter baumannii assessed as inhibition of bacterial growth incubated for 24 hrs by CLSI based analysis. In kind it is functional.
Experiment [7] has as its system Staphylococcus aureus. The experiment can be described thus: Antibacterial activity methicillin-resistant Staphylococcus aureus 003 assessed as inhibition of H2S production at 50 uM. Type of experiment: functional.
Experiment [8] deals with Staphylococcus aureus. The experiment can be described thus: Bactericidal activity against Staphylococcus aureus at 4 times MIC measured after 24 hrs by time kill assay. In kind it is functional, organism-based.
Experiment [9] has as its system Staphylococcus aureus. The experiment in a line: Bactericidal activity against methicilin-resistant Staphylococcus aureus 003 at 4 times MIC measured after 24 hrs by time kill assay. Type of experiment: functional, organism-based.
Experiment [10] deals with Staphylococcus aureus. The experiment can be described thus: In vivo antibacterial activity against methicilin-resistant Staphylococcus aureus infected in ICR mouse skin infection model assessed as wound area at 40 mg/kg, ip preadministered with compound for 24 hrs followed by bacterial infection and measured after 3 days. In kind it is functional. The conditions noted are these: time 96 hrs.

In brackets after ≈: the same amount, converted by molar mass. Activity calls are given as the source filed them. The calls are words filed in the database; no cut-off is given here.

`COc1cccc(OC)c1C(=O)N[C@@H]1C(=O)N2[C@@H]1SC(C)(C)[C@@H]2C(=O)[O-].[Na+]`: the MIC was 32 µg/mL in [1], greater than 128 µg/mL in experiment [2], 1 µg/mL in experiment [3] and greater than 128 µg/mL in experiment [4].

Regarding `CC(C)CCCCC(=O)N[C@@H](CCN)C(=O)N[C@H](C(=O)N[C@@H](CCN)C(=O)N[C@H]1CCNC(=O)[C@H]([C@@H](C)O)NC(=O)[C@H](CCN)NC(=O)[C@H](CCN)NC(=O)[C@H](CC(C)C)NC(=O)[C@@H](Cc2ccccc2)NC(=O)[C@@H](CCN)NC1=O)[C@@H](C)O.O=S(=O)(O)O`, the MIC in [1] turned out to be 128 µg/mL; in [5], 0.25 µg/mL; in experiment [2] it was 16 µg/mL; in experiment [3] it was 8 µg/mL; in experiment [4], 16 µg/mL; in experiment [6] it was 1 µg/mL.

For the compound `NOCC(=O)O` [CARBOXYMETHOXYLAMINE], the inhibition at 50 µM in [7] came out at 30%.

`CO[C@@]1(NC(=O)Cc2cccs2)C(=O)N2C(C(=O)O)=C(COC(N)=O)CS[C@@H]21` [CEFOXITIN]: the minimal inhibitory concentration (MIC) was greater than 128 µg/mL in experiment [1], greater than 128 µg/mL in [2], 2 µg/mL (≈ 4.68 µM) in experiment [3] and greater than 128 µg/mL in experiment [4]. Also, the result in experiment [8] and in [9] was inactive. In addition, in experiment [10], the Activity is 0.28 cm2.
